Measured values from patent US20240246932A1 (Merck Sharp & Dohme LLC, priority 2021, published 2024).

Target: human NaV 1.8 channels stably expressed in HEK 293 cells (Homo sapiens (Human), UniProt Q9Y5Y9)
Test: Nav1.8 Qube automated patch-clamp assay
Format: cell-based
Conditions: human NaV1.8 in HEK 293 cells, whole-cell voltage clamp, room temperature; read-out: IC50 values (nM) for Examples in the Nav1.8 Qube Assay
Method in brief: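 Whole-cell voltage clamp at room temperature on HEK293 cells; from −90 mV, a 10 s 1 Hz train of 20 ms pulses to 10 mV (repolarising to −67 mV) was applied. Peak currents at pulses 1 and 10 gave resting- and inactivated-state inhibition; IC50 fitted by Hill equation. Internal CsF/CsCl buffer.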

Sequence of human NaV 1.8 channels stably expressed in HEK 293 cells (Q9Y5Y9 whole entry): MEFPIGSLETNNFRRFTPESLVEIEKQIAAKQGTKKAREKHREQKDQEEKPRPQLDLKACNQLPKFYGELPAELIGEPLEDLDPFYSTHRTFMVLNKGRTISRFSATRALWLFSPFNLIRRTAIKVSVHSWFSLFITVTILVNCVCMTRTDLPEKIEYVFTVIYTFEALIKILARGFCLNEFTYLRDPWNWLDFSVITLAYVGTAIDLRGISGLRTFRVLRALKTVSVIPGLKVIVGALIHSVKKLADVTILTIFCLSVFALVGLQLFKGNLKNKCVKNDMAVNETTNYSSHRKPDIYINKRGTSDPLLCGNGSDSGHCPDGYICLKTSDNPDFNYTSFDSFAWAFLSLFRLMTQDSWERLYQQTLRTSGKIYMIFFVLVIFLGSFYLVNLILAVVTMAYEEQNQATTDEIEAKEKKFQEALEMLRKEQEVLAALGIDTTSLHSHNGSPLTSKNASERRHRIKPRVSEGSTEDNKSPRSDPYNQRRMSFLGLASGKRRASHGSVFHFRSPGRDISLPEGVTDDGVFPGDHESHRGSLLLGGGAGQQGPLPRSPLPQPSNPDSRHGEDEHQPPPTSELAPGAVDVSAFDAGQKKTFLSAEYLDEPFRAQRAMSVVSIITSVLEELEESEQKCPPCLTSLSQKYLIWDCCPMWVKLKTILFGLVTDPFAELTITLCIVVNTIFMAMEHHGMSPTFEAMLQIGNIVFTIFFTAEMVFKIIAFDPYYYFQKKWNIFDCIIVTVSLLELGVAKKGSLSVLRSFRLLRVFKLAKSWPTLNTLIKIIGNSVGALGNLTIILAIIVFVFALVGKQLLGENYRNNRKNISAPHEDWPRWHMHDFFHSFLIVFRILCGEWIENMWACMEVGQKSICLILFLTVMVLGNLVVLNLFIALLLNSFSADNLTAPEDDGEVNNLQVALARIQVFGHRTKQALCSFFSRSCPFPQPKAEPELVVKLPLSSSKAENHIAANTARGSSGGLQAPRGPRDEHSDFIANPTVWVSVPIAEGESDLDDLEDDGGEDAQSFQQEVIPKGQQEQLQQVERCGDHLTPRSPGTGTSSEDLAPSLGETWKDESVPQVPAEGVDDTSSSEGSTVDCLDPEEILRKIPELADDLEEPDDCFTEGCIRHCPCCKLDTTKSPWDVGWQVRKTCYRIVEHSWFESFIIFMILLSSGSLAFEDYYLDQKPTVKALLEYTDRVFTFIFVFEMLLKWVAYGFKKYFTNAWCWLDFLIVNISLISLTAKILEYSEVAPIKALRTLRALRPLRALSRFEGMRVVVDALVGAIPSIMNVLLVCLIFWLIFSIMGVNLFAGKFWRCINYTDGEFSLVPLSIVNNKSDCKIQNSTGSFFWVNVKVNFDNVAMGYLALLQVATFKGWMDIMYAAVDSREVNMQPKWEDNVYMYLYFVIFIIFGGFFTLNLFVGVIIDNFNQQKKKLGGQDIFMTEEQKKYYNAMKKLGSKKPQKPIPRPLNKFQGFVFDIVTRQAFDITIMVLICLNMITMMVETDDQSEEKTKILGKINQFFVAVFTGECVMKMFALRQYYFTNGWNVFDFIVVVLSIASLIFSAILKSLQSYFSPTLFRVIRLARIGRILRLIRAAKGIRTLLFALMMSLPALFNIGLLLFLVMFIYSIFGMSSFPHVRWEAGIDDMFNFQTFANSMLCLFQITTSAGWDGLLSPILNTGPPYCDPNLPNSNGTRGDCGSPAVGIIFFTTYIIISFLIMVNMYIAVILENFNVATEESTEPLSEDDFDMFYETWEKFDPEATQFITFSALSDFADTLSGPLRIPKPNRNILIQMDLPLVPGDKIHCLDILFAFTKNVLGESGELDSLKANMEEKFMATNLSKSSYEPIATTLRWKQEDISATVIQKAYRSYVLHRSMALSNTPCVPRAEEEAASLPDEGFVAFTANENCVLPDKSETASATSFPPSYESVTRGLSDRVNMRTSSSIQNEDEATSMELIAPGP

Row | IC50 | SMILES
1 | 41.1 nM | C[C@@H]1C(=O)NCCN1C(=O)NC(c1ccc(C(F)(F)F)nc1)c1ccc(F)c(OC(F)(F)F)c1 (single isomer, unassigned) [Example 19A, (2R)-N-((R or S)-(4-fluoro-3-(trifluoro-methoxy)phenyl)(6-(trifluoromethyl)pyridin-3-yl)methyl)-2-methyl-3-oxopiperazine-1-carboxamide]
2 | 34.9 nM | C[C@@H]1C(=O)NCCN1C(=O)NC(c1ccc(Cl)cc1)c1ccnc(C(F)(F)F)n1 (single isomer, unassigned) [Example 68A]
3 | 57.8 nM | C[C@@H]1C(=O)NCCN1C(=O)NC(c1ccc(F)c(Cl)c1)c1cc(C(F)(F)F)n[nH]1 (single isomer, unassigned) [Example 85A]
4 | 6.97 nM | O=C1CN(C(=O)NC(c2cnc(C(F)(F)F)c(Cl)c2)c2ccc(F)c(Cl)c2F)CCN1 (single isomer, unassigned) [Example 36, N-((R or S)-(3-chloro-2,4-difluorophenyl)(5-chloro-6-(trifluoro-methyl)pyridin-3-yl)methyl)-3-oxopiperazine-1-carboxamide]
5 | 6.87 nM | C[C@@H]1C(=O)NCCN1C(=O)NC(c1ccc(F)c(Cl)c1)c1ccc(F)c(OCC(F)(F)F)n1 (single isomer, unassigned) [Example 70B]
6 | 42 nM | C[C@@H]1C(=O)NCCN1C(=O)NC(c1ccc(F)c(Cl)c1)c1cnn(CC(F)(F)F)c1 (single isomer, unassigned) [Example 67B, (2R)-N-((S or R)-(3-chloro-4-fluorophenyl)(1-(2,2,2-trifluoroethyl)-1H-pyrazol-4-yl)methyl)-2-methyl-3-oxopiperazine-1-carboxamide]
7 | 3.9 nM | C[C@@H]1C(=O)NCCN1C(=O)NC(c1ccc(OC(F)(F)F)nc1)c1ccc(F)c(Cl)c1F (single isomer, unassigned) [Example 4A, (2R)-N-((R or S)-(3-chloro-2,4-difluorophenyl)(6-(trifluoromethoxy)pyridin-3-yl)methyl)-2-methyl-3-oxopiperazine-1-carboxamide]
8 | 506 nM | C[C@@H]1C(=O)NCCN1C(=O)NC(c1cnc(C(F)(F)F)nc1)c1ccc(F)c(Cl)c1F (single isomer, unassigned) [Example 30A, (2R)-N-((R or S)-(3-chloro-2,4-difluoro-phenyl)(2-(trifluoro-methyl)pyrimidin-5-yl)methyl)-2-methyl-3-oxopiperazine-1-carboxamide]
9 | 1.12 nM | C[C@@H]1C(=O)NCCN1C(=O)NC(c1ccc(OC(F)(F)F)c(Cl)c1)c1cnn(C(F)(F)F)c1 (single isomer, unassigned) [Example 63A, (2R)-N-((R or S)-(3-chloro-4-(trifluoro-methoxy)phenyl)(1-(trifluoromethyl)-1H-pyrazol-4-yl)methyl)-2-methyl-3-oxopiperazine-1-carboxamide]
10 | 23 nM | C[C@@H]1C(=O)NCCN1C(=O)NC(c1cnc(C(F)(F)F)nc1)c1ccc(F)c(Cl)c1 (single isomer, unassigned) [Example 69B, (2R)-N-((S or R)-(3-chloro-4-fluorophenyl)(2-(trifluoromethyl)pyrimidin-5-yl)methyl)-2-methyl-3-oxopiperazine-1-carboxamide]
11 | 20.6 nM | C[C@@H]1C(=O)NCCN1C(=O)NC(c1ccc(OC(F)F)nc1)c1ccc(F)c(Cl)c1 (single isomer, unassigned) [Example 73B, (2R)-N-((R or S)-(3-chloro-4-fluoro-phenyl)(6-(difluoro-methoxy)pyridin-3-yl)methyl)-2-methyl-3-oxopiperazine-1-carboxamide]
12 | 4.74 nM | C[C@@H]1C(=O)NCCN1C(=O)NC(c1ccc(C(F)(F)F)nc1)c1ccc(F)c(Cl)c1F (single isomer, unassigned) [Example 15A]
13 | 2.19 nM | C[C@@H]1C(=O)NCCN1C(=O)NC(c1ccc(F)c(C(F)(F)F)n1)c1ccc(F)c(Cl)c1F (single isomer, unassigned) [Example 60A, (2R)-N-((R or S)-(3-chloro-2,4-difluoro-phenyl)(5-fluoro-6-(trifluoromethyl)pyridin-2-yl)methyl)-2-methyl-3-oxopiperazine-1-carboxamide]
14 | 13.5 nM | C[C@@H]1C(=O)NCCN1C(=O)NC(c1ccc(C(F)(F)F)nc1)c1ccc(F)c(Cl)c1 (single isomer, unassigned) [Example 16A, (2R)-N-((R or S)-(3-chloro-4-fluorophenyl)(6-(trifluoromethyl)pyridin-3-yl)methyl)-2-methyl-3-oxopiperazine-1-carboxamide]
15 | 729 nM | CCC1C(=O)NCCN1C(=O)NC(c1ccc(C(F)(F)F)nc1)c1ccc(F)c(Cl)c1F (single isomer, unassigned) [Example 40A, N-((R or S)-(3-chloro-2,4-difluorophenyl)(6-(trifluoromethyl)pyridin-3-yl)methyl)-(R or S)-2-ethyl-3-oxopiperazine-1-carboxamide]
16 | 10.8 nM | C[C@@H]1C(=O)NCCN1C(=O)NC(c1ccc(OC(F)(F)F)cc1)c1cc(C(F)(F)F)n[nH]1 (single isomer, unassigned) [Example 87B, (2R)-2-methyl-3-oxo-N-((S or R)-(4-(trifluoromethoxy)phenyl)(3-(trifluoromethyl)-1H-pyrazol-5-yl)methyl)piperazine-1-carboxamide]
17 | 2.76 nM | C[C@@H]1C(=O)NCCN1C(=O)NC(c1ccnc(OCC(F)(F)F)c1)c1ccc(F)c(Cl)c1 (single isomer, unassigned) [Example 71B, (2R)-N-((S or R)-(3-chloro-4-fluorophenyl)(2-(2,2,2-trifluoro-ethoxy)pyridin-4-yl)methyl)-2-methyl-3-oxopiperazine-1-carboxamide]
18 | 3.6 nM | C[C@@H]1C(=O)NCCN1C(=O)NC(c1cccc(OC(F)(F)F)c1)c1ccc(F)c(C(F)(F)F)n1 (single isomer, unassigned) [Example 58A, (2R)-N-((R or S)-(5-fluoro-6-(trifluoro-methyl)pyridin-2-yl)(3-(trifluoromethoxy)phenyl)methyl)-2-methyl-3-oxopiperazine-1-carboxamide]
19 | 1.02 nM | C[C@@H]1C(=O)NCCN1C(=O)NC(c1ccc(OC(F)(F)F)c(F)c1)c1ccc(C#N)c(C(F)(F)F)n1 (single isomer, unassigned) [Example 61A]
20 | 101 nM | C[C@@H]1C(=O)NCCN1C(=O)NC(c1cnc(OC(F)F)s1)c1ccc(F)c(Cl)c1F (single isomer, unassigned) [Example 14B, (2R)-N-((S or R)-(3-chloro-2,4-difluorophenyl)(2-(difluoromethoxy)thiazol-5-yl)methyl)-2-methyl-3-oxopiperazine-1-carboxamide]
21 | 1.18 nM | C[C@@H]1C(=O)NCCN1C(=O)NC(c1cnc(OCC(F)(F)F)c(F)c1)c1ccc(F)c(Cl)c1F (single isomer, unassigned) [Example 10A, (2R)-N-((R or S)-(3-chloro-2,4-difluorophenyl)(5-fluoro-6-(2,2,2-trifluoroethoxy)pyridin-3-yl)methyl)-2-methyl-3-oxopiperazine-1-carboxamide]
22 | 72.6 nM | C[C@@H]1C(=O)NCCN1C(=O)NC(c1ccc(C(F)(F)F)nc1)c1ccc(F)c(OC(F)(F)F)c1 (single isomer, unassigned) [Example 19B, (2R)-N-((S or R)-(4-fluoro-3-(trifluoro-methoxy)phenyl)(6-(trifluoromethyl)pyridin-3-yl)methyl)-2-methyl-3-oxopiperazine-1-carboxamide]
